From article PMC4184797, “The Structure, Stability and Pheromone Binding of the Male Mouse Protein Sex Pheromone Darcin” (PLoS ONE, 2014)

Legend:
Type in all cases: binding
[1] = target: T1, MUP11 (Mus musculus, UniProt P04938); test: 1H-15N HSQC NMR chemical shift perturbation
T1 construct: N-terminal His6-tagged recombinant MUP11 (mature protein)
T1 sequence (P04938 20-181): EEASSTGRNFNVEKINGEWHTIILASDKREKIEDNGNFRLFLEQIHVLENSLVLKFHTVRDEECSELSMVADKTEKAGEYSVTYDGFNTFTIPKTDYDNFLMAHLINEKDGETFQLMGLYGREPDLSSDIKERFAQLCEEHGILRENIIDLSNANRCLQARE

[2] = target: T2, darcin (Mus musculus, UniProt Q5FW60); test: 1H-15N HSQC NMR chemical shift perturbation
T2 construct: gene Mup20; N-terminal His6-tagged recombinant darcin (mature protein)
T2 sequence (Q5FW60 20-181): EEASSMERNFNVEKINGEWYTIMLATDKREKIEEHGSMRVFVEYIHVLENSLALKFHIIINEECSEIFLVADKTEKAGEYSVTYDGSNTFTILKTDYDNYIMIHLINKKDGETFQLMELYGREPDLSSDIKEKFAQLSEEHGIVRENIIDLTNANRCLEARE

[3] = target: T1, MUP11; test: ITC, one-site model, […] °C; also 1H-15N HSQC NMR titration
[4] = target: T2, darcin; test: as above

Compound | 1H-15N HSQC NMR chemical shift perturbation [1] | 1H-15N HSQC NMR chemical shift perturbation [2] | Kd [3] | Kd [4]
CC1=CC(=O)c2ccccc2C1=O [K3, menadione] | The smaller ligands, K3 and SBT, bind to both darcin and MUP11 in the hydrophobic cavity of the beta barrel | The smaller ligands, K3 and SBT, bind to both darcin and MUP11 in the hydrophobic cavity of the beta barrel | – | –
CCC(C)c1nccs1 (stereo not shown) [SBT, 2-sec-butyl-thiazole] | – | – | ~2760 nM | ~173 nM
